{"source": "a melting point compilation (Tetko et al.; mined from patent text by program, amines drawn as free bases though some values may be those of a salt)", "data": [{"units": {"melting point": "°C"}, "values": [{"smiles": "COCOc1c(OC)cc(C(S)CS)cc1OC", "note": "(configuration not stated)", "melting point": "84 to 85"}, {"smiles": "CCCCc1nc(Cl)c(CC(=O)OCC)c(Cc2ccc(-c3ccccc3C#N)cc2)n1", "melting point": 66}, {"smiles": "N#CN1CCC(Nc2ncc3ncnc(Nc4ccc(F)c(Cl)c4)c3n2)CC1", "melting point": "245 to 247"}, {"smiles": "Oc1ccc(-c2ncc3ncc(-c4ccco4)cc3n2)cc1", "melting point": "261 to 263"}, {"smiles": "COC(=O)[C@@H]1C[C@H](O)C(=O)[C@@H]2[C@@]3(C)C[C@@H](c4ccoc4)OC(=O)[C@H]3CC[C@]21C", "melting point": "211 to 214"}, {"smiles": "O=C1c2cc(OCc3ccc4ccccc4n3)ccc2OCC1OCc1ccccc1", "note": "(configuration not stated)", "melting point": "113 to 115"}, {"smiles": "CS(=O)(=O)N(CCc1ccccc1)Cc1cccnc1", "melting point": "94 to 95"}, {"smiles": "O=C(O)Cc1ccc(NC(=O)C(Cc2ccccc2)NS(=O)(=O)c2ccc(Cl)cc2)cc1", "note": "(racemic)", "melting point": "204 to 206"}, {"smiles": "O=C(O)/C=C/c1ccc2c(/C=C/C(=O)O)c[nH]c2c1", "melting point": "> 360"}, {"smiles": "Cc1ccc(S(=O)(=O)Nc2ccc(N)c([N+](=O)[O-])c2)cc1", "melting point": 146}, {"smiles": "O=S1(=O)N=CN(C2CC2)c2c(F)cc(F)c(F)c21", "melting point": "166 to 168"}, {"smiles": "Cc1c(C)c2c(c(C)c1NC(=O)NC(C)(C)CO)C(c1ccc(C(C)C)cc1)CO2", "note": "(configuration not stated)", "melting point": "157 to 158"}, {"smiles": "N#CCC(CC#N)c1cccnc1", "melting point": "60 to 61"}, {"smiles": "COc1ccc(N(c2ccc(OC)cc2)c2ccc(-c3ccc(N(c4ccc(OC)cc4)c4ccc5ccc6cccc7ccc4c5c67)cc3)cc2)cc1", "melting point": "211 to 213"}, {"smiles": "CNC(=C[N+](=O)[O-])NCCOc1cccc(CN(C)C)c1", "melting point": "130 to 131"}, {"smiles": "COC(=O)[C@@H](Cc1ccccc1)NC(=O)Nc1n[nH]c(=S)s1", "melting point": 110}, {"smiles": "CC(C)(c1ccccc1)n1nnc(-c2ccccc2)n1", "melting point": "44 to 46"}, {"smiles": "CC(C)(OCc1cc2nc(Cl)ccc2n1S(=O)(=O)c1cccc2ccccc12)C(=O)O", "melting point": 209}, {"smiles": "O=C(CNc1ccc2[nH]ncc2c1)N1CCC(Cc2ccccc2)CC1", "melting point": "42 to 47"}, {"smiles": "CCNC(=O)c1ccc(N2CCN(Cc3cnc4c(c3)NC(=O)[C@@H]3CSCCN43)CC2)cc1", "melting point": 289}, {"smiles": "COC(=O)c1cc2c(cc1N)OCCO2", "melting point": "73 to 77"}, {"smiles": "CC(=C1SC(=O)NC1=O)c1ccc(S(=O)(=O)CCc2ccccc2)cc1", "melting point": "201 to 202"}, {"smiles": "N#Cc1ccnc(CO)c1", "melting point": "92 to 94"}, {"smiles": "Cc1cc(Cn2c(-c3ccccc3)nc(Cl)c2CC(=O)O)ccc1O", "melting point": "190 to 193"}, {"smiles": "COC(=O)c1nn(C2CCCCO2)cc1NC(=O)c1ccccc1", "note": "(configuration not stated)", "melting point": "124 to 125"}, {"smiles": "CC#Cc1ccc(NC(=O)c2ccccc2NCc2ccc(=O)[nH]c2)cc1C(F)(F)F", "melting point": "208 to 212"}, {"smiles": "Cc1nnc(-c2ccc3occ(-c4ccc(SC(C)C)cc4)c3c2)o1", "melting point": "96 to 97"}, {"smiles": "O=[N+]([O-])c1cccc(C=CC=Cc2ccccc2)c1", "melting point": 144}, {"smiles": "CN(Cc1ccc(NC(=O)C2=Cc3cc(-c4ccc(S(C)(=O)=O)cc4)ccc3OCC2)cc1)C1CCOCC1", "melting point": "233 to 235"}, {"smiles": "c1cnc2ncn(CCCCc3nnnn3C3CCCCC3)c2c1", "melting point": "143 to 146"}, {"smiles": "COc1ccc(-c2cc(C(F)(F)F)ccc2/C=C/C(=O)Nc2ccc3[nH]ccc3c2)cn1", "melting point": "219 to 221"}, {"smiles": "COc1cccc([C@H]2O[C@H](CC(=O)Nc3cc4c(c(C(=O)O)c3)CCCC4)C(=O)N(CC(C)(C)CO)c3ccc(Cl)cc32)c1OC", "melting point": "178 to 179"}, {"smiles": "CN1CCC(=O)N(c2cccc(Cl)c2Cl)C1=O", "melting point": "163 to 165"}, {"smiles": "Cc1cc(-n2ccnc2)c2cccc(OCc3c(Cl)ccc(S(=O)(=O)N4CCC[C@H]4C(=O)NCCCNC(=O)c4ccc(C=NN)cc4)c3Cl)c2n1", "melting point": 148}, {"smiles": "Cc1cccc(C)c1-c1cc(O)c(SCc2ccccc2)c(=O)o1", "melting point": "140 to 143"}, {"smiles": "CCc1nc(C(=O)NCCc2ccc(S(N)(=O)=O)cc2)no1", "melting point": "159 to 160"}, {"smiles": "O=C(O)Cc1cc2c(s1)-c1ccccc1OC2C1=CCCC=C1", "note": "(configuration not stated)", "melting point": "105 to 110"}]}]}
